Results on four compounds are retold here after US9441263B2, “Ribosomal targets for antibiotic drug discovery” (Cornell University, priority 2011, dated 2016).

One assay deals with wild-type ribosomes. Description: Single-molecule FRET tRNA incorporation (aa-tRNA selection) assay, wild-type ribosomes. In kind it is biochemical, E. coli. On the procedure: (§1) Single-Molecule FRET tRNA Incorporation Assay.
The process of tRNA selection on the ribosome was monitored using single-molecule FRET by stropped-flow injection of a 10 nM solution of ternary complex (EF-Tu(GTP)·aa-tRNA) containing Phe-tRNA^Phe (Cy5-acp^3U47) to surface-immobilized ribosome complexes containing deacylated tRNA^fMet (Cy3-s^4U8) in the P site as previously described (Geggier 2010). Fluorescence and FRET traces were extracted from video and selected for analysis using automated analysis software implemented in MATLAB (MathWorks) using the segmental k-means algorithm (Qin, 1996). Complete accommodation of Phe-tRNA^Phe into the A site was marked by the first observation of a 400 ms dwell in a high ([…]) FRET state, structurally assigned to the “classical” pre-translocation complex configuration through previous investigations (Geggier 2010). Individual experiments, in which approximately 100 accommodation events were obtained, were performed in triplicate. The mean extent of accommodation and standard deviations are plotted as a function of time. Wild type and mutant ribosomes for these experiments were purified as previously described (Feldman 2010).

Assay [1] deals with A1408G mutant ribosomes. The assay can be described thus: Single-molecule FRET tRNA incorporation (aa-tRNA selection) assay, A1408G mutant ribosomes. It counts as biochemical, E. coli.
From the text: (§2) Purification of A1408G Ribosomes.
(§3) Wild-type ribosomes and ribosomes bearing A1408G mutation were purified from a Δ7prrn E. coli MG1655 strain (RecA-) for single-molecule translocation and recycling experiments. The A1408G neomycin resistance mutation was introduced into a […] (KanR, SpecR) plasmid containing an rrnB operon (Komoda 2006) using Quickchange II site-directed mutagenesis (Stratagene). Wild-type and A1408G containing pRB102 plasmids (Komoda 2006) were then swapped into a Δ7prrn E. coli MG1655 (pKK3535, AmpR; ptRNA67, SpecR) strain. Tightly-coupled 70S ribosomes were purified from these strains in Tris-polymix buffer as previously described (Munro 2007).
as §1
The process of tRNA selection on the ribosome was monitored using single-molecule FRET by stropped-flow injection of a 10 nM solution of ternary complex (EF-Tu(GTP)·aa-tRNA) containing Phe-tRNA^Phe (Cy5-acp^3U47) to surface-immobilized ribosome complexes containing deacylated tRNA^fMet (Cy3-s^4U8) in the P site as previously described (Geggier 2010). Fluorescence and FRET traces were extracted from video and selected for analysis using automated analysis software implemented in MATLAB (MathWorks) using the segmental k-means algorithm (Qin, 1996). […]

In assay [2] the test system is wild-type pre-translocation ribosome complexes. Description: Single-molecule translocation assay (EF-G catalyzed), wild-type ribosome complexes. In kind it is biochemical, E. coli. The conditions noted are these: wild-type ribosomes. On the procedure:
(§4) Single-Molecule Translocation Assay.
(§5) Fluorescence-based, single-molecule translocation assays were carried out as previously described (Munro 2010c) on either wild-type or A1408G mutant pre-translocation ribosome complexes. Experiments were performed in Tris-polymix buffer (pH 7.5, 5 mM Mg(OAc)2) and analyzed as previously described (Munro 2010c; Wang 2011), plotting the fraction of translocating molecules as a function of time.

Assay [3] concerns A1408G mutant pre-translocation ribosome complexes. The assay can be described thus: Single-molecule translocation assay (EF-G catalyzed), A1408G ribosome complexes. It counts as biochemical, E. coli.
From the text: as §2, §3, §4, §5

Assay [4] concerns wild-type 70S ribosome complexes. The assay can be described thus: Single-molecule ribosome recycling assay (loss of Cy5-labeled L1 fluorescence), wild-type. In kind it is biochemical, E. coli. The following applies: wild-type ribosomes; neomycin 0.1-100 μM. The source says: (§6) As described in the examples, this invention provides single-molecule assays for ribosome recycling which comprises surface-immobilizing a ribosome labeled on the 50S subunit in the presence of tRNA, RRF and EF-G under translation conditions; and monitoring changes in the signal from the label, wherein a change in the signal indicates recycling or lack thereof. For example, this assay can be conducted in solution or using smFRET like imaging techniques (following fluorescence decay), with the label on the ribosome being a fluorophore.
(§7) Single-Molecule Fluorescence Experiments.
(§8) All single-molecule fluorescence experiments were performed at room temperature in an MES-Polymix buffer that resembled the crystallization condition (50 mM MES, pH 6.5, 5.0 mM MgCl2, 350 mM NH4Cl, 5.0 mM putrescine, 5.0 mM spermidine, 5 mM (3-mercaptoethanol and 0.5 mM EDTA). Oxygen scavenging and triplet-state quenching systems used were as previously described (Dave 2009). The smFRET data were acquired with Metamorph (Molecular Device), and analyzed in MATLAB (Mathwork) and QuB (www.qub.buffalo.edu) as previously described (Munro 2010a,b). Subunit release was monitored by directly exciting the Cy5 fluorophore within surface-immobilized ribosome complexes (Coherent) at 10 mW laser power. […] Changes in fluorescence intensity were analyzed and plotted in Origin (OriginLab).

Assay [5] relates to A1408G mutant ribosomes. The assay can be described thus: Single-molecule ribosome recycling assay (loss of Cy5-labeled L1 fluorescence), A1408G. It counts as biochemical, E. coli. The conditions noted are these: neomycin 0.1-100 μM.
From the text: as §6
Purification of A1408G Ribosomes. […]
as §7, §8

In assay [6] the test system is Cy3-S13 / Cy5-L1 (T202C) ribosome complexes. Description: Single-molecule L1-S13 FRET assay (ribosome conformational states). In kind it is biochemical, E. coli. On the procedure:
Generation of Site-Specifically Labeled 30S Subunits and 50S Subunits.
Ribosomal protein S13 was PCR-cloned from E. coli strain K12 genomic DNA into the pPROEX HTb vector with a TEV-cleavable His6-tag and a 12-residue peptide encoding the S6 epitope for the Sfp phosphopantetheinyl transferase reaction (Yin 2006), fused at the N terminus. Following transformation of this plasmid into an E. coli ΔS13 knockout strain (Cukras 2005), cells were cultured and ribosomes were harvested as previously described (Wang 2011). Pure 30S subunits were isolated via sucrose gradient centrifugation in a low magnesium buffer (20 mM HEPES pH 7.5, 50 mM KCl, 10 mM NH4Cl, 0.5 mM EDTA, 6 mM BME, 1 mM MgCl2). 30S subunits containing Sfp-tagged S13 were isolated from this population by cobalt affinity chromatography (Clontech). Subsequently, the Sfp tag was enzymatically labeled and the His6-tag was enzymatically removed in a buffer containing 20 mM HEPES, pH 7.5, 100 mM KCl, 10 mM MgCl, and 6 mM BME. 20 μM N-Sfp-S13 30S subunits, 5 μM TEV protease, 250 μM Cy3-CoA and 25 μM Sfp were incubated for 24 h at 18° C. Sfp enzyme, TEV protease and unbound Cy3-CoA were then removed by filtration over a 100K membrane (Millipore). Prior to 70S complex formation, ribosomes were buffer exchanged into Tris-polymix buffer (Munro 2010c). 50S subunits labeled with Cy5-L1 (T202C) were prepared and purified as previously described (Munro 2010b).
Preparation of L1-S13 FRET Ribosome Complexes with tRNA^fMet or tRNA^Phe in the P Site.
Cy3-S13 30S and Cy5-L1 50S subunits were heat activated at 42° C. for 10 min in Tris-polymix Mg^2+ buffer and ribosomes were then initiated with fMet-tRNA^fMet or NAc-Phe-tRNA^Phe as previously described (Munro 2010c).
Single-Molecule L1-S13 FRET Assay.
All single-molecule FRET experiments were performed at room temperature in Tris-Polymix with 5 mM Mg^2+ buffer as previously described (Wang 2011), where oxygen scavenging and triplet-state quenching systems were employed (Dave 2009). Following surface immobilization (Munro 2007), the ribosome-bound, P-site tRNA was deacylated by incubation with 2 mM puromycin for 10 min at room temperature. The smFRET data were acquired by directly exciting the Cy3 fluorophore at 532 nm (LaserQuantum) while Cy3 and Cy5 intensities were simultaneously recorded in Metamorph (Molecular Devices) with 40 ms integration time. The data were analyzed in MATLAB (MathWorks) and plotted in Origin (OriginLab) as previously described (Munro 2007).

For assay [7], the system named is wild-type pre-translocation ribosome complexes. The following applies: Feldman 2010; cited from earlier work.
Setting [8] is: deacylated tRNA^fMet in the P site, no A-site tRNA, EF-G with GDPNP.

“Also recorded” adds a separate entry of the source. Starred links: 1 amine or outer side, 2 acyl side, 3 side chain; linkers in the order of their positions; H or OH if unused. Positions of bridges follow the written chain, without caps; N, C: chain ends. Non-standard residues stand in square brackets, D forms with d. Residues, ends and D or L forms follow the SMILES beside them. *: point of attachment. X1 = NC1=N[C@@H]([C@H](N[*:1])C(=O)[*:2])C[C@H](O)N1; ΔAla(Z-3-ureido) = NC(=O)N/C=C(\N)C(=O)O; β3hOrn = NCCC[C@H](N)CC(=O)*; Dap = NC[C@H](N)C(=O)O

On to neomycin, for which the “selection of cognate tRNA” value in the assay with wild-type ribosomes (100 nM neomycin, cognate (UUC) codon) is “negligible effects”. The “rates of near-cognate aa-tRNA accommodation” value with wild-type ribosomes (100 nM neomycin, near-cognate (UCU) codon) was “substantially increased”. For the same compound, in the assay with wild-type ribosomes (20 μM neomycin), the “selection of both cognate and near-cognate tRNA” value is listed as “significantly attenuated”. The “miscoding effects / incorporation of near-cognate tRNA” value with A1408G mutant ribosomes [1] (100 nM neomycin) is recorded as “reduced; also recorded: almost entirely suppressed”. Moreover, the “selection (incorporation) of cognate and near-cognate tRNA” value with A1408G mutant ribosomes [1] (20 μM neomycin) is on record as “both reduced; also recorded: Inhibition persisted”. Further, the “concentration at which substrate translocation is blocked” value in assay [2] and in assay [3] (A1408G ribosomes) was “above 1 μM” each time. Moreover, the EF-G catalyzed translocation entry in assay [3] (A1408G mutant background, neomycin 0.01-100 μM, normalized to no drug) is recorded as “inhibits EF-G catalyzed translocation in a concentration dependent manner”. Besides, the “ribosome recycling mediated by RRF and EF-G” value in assay [4] is “inhibited ribosome recycling”. In addition, in the assay on A1408G mutant ribosomes [5], the “ribosome recycling catalyzed by RRF, EF-G and GTP” value is “inhibits the process of ribosome recycling catalyzed by RRF, EF-G and GTP in a concentration-dependent manner; also recorded: inhibited ribosome recycling”. Also, the “ribosome conformation stabilized (L1-S13 FRET)” value in assay [6] (figure title, tRNA^fMet or tRNA^Phe in the P site) was “stabilizes an intermediate conformation of the ribosome”. The “FRET state stabilized (L1-S13)” value in assay [6] (higher neomycin concentrations (>1 μM), deacylated tRNA^fMet in the P site) is recorded as “stabilized a ribosome configuration exhibiting an intermediate FRET value”. For the same compound, the “FRET state favored (L1-S13)” value in assay [6] (low neomycin concentrations (<100 nM), deacylated tRNA^fMet in the P site) is reported as “low-FRET state was favored”. Further, the “neomycin concentration inhibiting translocation as potently as viomycin” value in assay [7] is given as “higher than 100 nM”.
`NCCC[C@H](N)CC(=O)N[C@H]1CNC(=O)[C@H]([C@H]2C[C@H](O)NC(N)=N2)NC(=O)/C(=C/NC(N)=O)NC(=O)[C@H](CO)NC(=O)[C@H](CO)NC1=O` [viomycin] (β3hOrn-[Dap]SS[ΔAla(Z-3-ureido)][X1]; lactam 1-C): in assay [6] (setting [8]), the “FRET state stabilized (L1-S13)” value is recorded as “high-FRET state was also favored; also recorded: rotated state”.
For “RRF: ribosome recycling factor, purified from E. coli, C-terminal hexa-histidine tagged”, in assay [6] (setting [8]), the “FRET state stabilized (L1-S13)” value is “high-FRET state was stabilized; also recorded: high-FRET rotated state”.
Regarding EF-G: GTPase elongation factor-G, the “FRET state stabilized (L1-S13)” value in assay [6] (setting [8]) is given as “high-FRET state was stabilized; also recorded: high-FRET, rotated state”.
